Assay results published in ChEMBL document CHEMBL4392886, “Antibacterial and Antibiofilm Activity of Flavonoid and Saponin Derivatives from Atriplex tatarica against Pseudomonas aeruginosa” (2019).
In brackets after ≈: the same amount, converted by molar mass. Activity calls are given as the source filed them. The rule behind the calls is not given here.

How the values were obtained:
Type in all cases: functional
Pseudomonas aeruginosa [1] = assay: Bactericidal activity against Pseudomonas aeruginosa ATCC 27853 by microdilution method
Pseudomonas aeruginosa [2] = assay: Antibiofilm activity against Pseudomonas aeruginosa PAO1 assessed as inhibition of biofilm formation at 0.25 times MIC incubated for 24 hrs by crystal violet staining based ELISA method
Micrococcus flavus [3] = assay: Bactericidal activity against Micrococcus flavus ATCC 10240 by microdilution method
Escherichia coli [4] = assay: Antibacterial activity against Escherichia coli ATCC 35210 by microdilution method
Micrococcus flavus [5] = assay: Antibacterial activity against Micrococcus flavus ATCC 10240 by microdilution method
Escherichia coli [6] = assay: Bactericidal activity against Escherichia coli ATCC 35210 by microdilution method
Pseudomonas aeruginosa [7] = assay: Antibacterial activity against Pseudomonas aeruginosa ATCC 27853 by microdilution method
Pseudomonas aeruginosa [8] = assay: Antibiofilm activity against Pseudomonas aeruginosa PAO1 assessed as inhibition of biofilm formation at 0.5 times MIC incubated for 24 hrs by crystal violet staining based ELISA method
Listeria monocytogenes [9] = assay: Bactericidal activity against Listeria monocytogenes NCTC 7973 by microdilution method
Pseudomonas aeruginosa [10] = assay: Antibiofilm activity against Pseudomonas aeruginosa PAO1 assessed as inhibition of biofilm formation at 0.125 times MIC incubated for 24 hrs by crystal violet staining based ELISA method
Listeria monocytogenes [11] = assay: Antibacterial activity against Listeria monocytogenes NCTC 7973 by microdilution method

Compound	MBC (Pseudomonas aeruginosa [1]) [µM]	inhibition (INH) (Pseudomonas aeruginosa [2]) [%]	MBC (Micrococcus flavus [3]) [µM]	MIC (Escherichia coli [4]) [µM]	MIC (Micrococcus flavus [5]) [µM]	MBC (Escherichia coli [6]) [µM]	MIC (Pseudomonas aeruginosa [7]) [µM]	inhibition (INH) (Pseudomonas aeruginosa [8]) [%]	MBC (Listeria monocytogenes [9]) [µM]	inhibition (INH) (Pseudomonas aeruginosa [10]) [%]	MIC (Listeria monocytogenes [11]) [µM]	inhibition (Pseudomonas aeruginosa [10])
COc1cc(/C=C/C(=O)O[C@H]2[C@H](O[C@H]3[C@@H](Oc4c(-c5ccc(O)c(O)c5)oc5cc(O)c(OC)c(O)c5c4=O)O[C@H](CO)[C@@H](O)[C@@H]3O)O[C@@H](C(=O)O)[C@@H](O)[C@@H]2O)ccc1O	473 (≈ 400 µg/mL)	26.2	473 (≈ 400 µg/mL)	591 (≈ 500 µg/mL)	296 (≈ 250 µg/mL)	1180 (≈ 1000 µg/mL)	296 (≈ 250 µg/mL)	43	1180 (≈ 1000 µg/mL)	1.8	886 (≈ 751 µg/mL)	
CC1(C)S[C@@H]2[C@H](NC(=O)[C@H](N)c3ccccc3)C(=O)N2[C@H]1C(=O)O [AMPICILLIN]	3580 (≈ 1250 µg/mL)	58.9	1150 (≈ 400 µg/mL)	716 (≈ 250 µg/mL)	716 (≈ 250 µg/mL)	1430 (≈ 501 µg/mL)	2150 (≈ 751 µg/mL)	65.3	1430 (≈ 501 µg/mL)	85.2	1150 (≈ 400 µg/mL)	
CC1(C)[C@@H](O[C@H]2OC[C@H](O)[C@H](O)[C@H]2O[C@H]2O[C@H](CO)[C@@H](O)[C@H](O)[C@H]2OS(=O)(=O)O)CC[C@]2(C)[C@H]3CC=C4[C@@H]5C[C@@](C)(CO)CC[C@]5(C(=O)O[C@H]5O[C@H](CO)[C@@H](O)[C@H](O)[C@H]5O)CC[C@@]4(C)[C@]3(C)CC[C@@H]12	744 (≈ 751 µg/mL)	21.9					496 (≈ 501 µg/mL)	26.5		12.5		
COc1cc(/C=C/C(=O)OC[C@@]2(O)CO[C@@H](O[C@H]3[C@@H](Oc4c(-c5ccc(O)c(O)c5)oc5cc(O)c(OC)c(O)c5c4=O)O[C@H](CO)[C@@H](O)[C@@H]3O)[C@@H]2O)ccc1O	623 (≈ 500 µg/mL)	4.3	623 (≈ 500 µg/mL)	499 (≈ 400 µg/mL)	312 (≈ 250 µg/mL)	623 (≈ 500 µg/mL)	312 (≈ 250 µg/mL)	20.1	1250 (≈ 1000 µg/mL)		935 (≈ 751 µg/mL)	inactive
CC1(C)[C@@H](O[C@H]2OC[C@H](O)[C@H](O)[C@H]2O[C@H]2O[C@H](CO)[C@@H](O)[C@H](O)[C@H]2O[C@H]2O[C@H](CO)[C@@H](O)[C@H](O)[C@H]2O)CC[C@]2(C)[C@H]3CC=C4[C@@H]5C[C@@](C)(C=O)CC[C@]5(C(=O)O[C@H]5O[C@H](CO)[C@@H](O)[C@H](O)[C@H]5O)CC[C@@]4(C)[C@]3(C)CC[C@@H]12	1380 (≈ 1500 µg/mL)	39.4	1380 (≈ 1500 µg/mL)	919 (≈ 1000 µg/mL)	919 (≈ 1000 µg/mL)	1380 (≈ 1500 µg/mL)	689 (≈ 751 µg/mL)	53.4	1840 (≈ 2000 µg/mL)		1150 (≈ 1250 µg/mL)	inactive
COc1c(O)cc2oc(-c3ccc(O)c(O)c3)c(O[C@H]3O[C@H](CO)[C@@H](O)[C@H](O)[C@H]3O[C@@H]3OC[C@](O)(CO)[C@H]3O)c(=O)c2c1O	639 (≈ 400 µg/mL)	12.2	639 (≈ 400 µg/mL)	399 (≈ 250 µg/mL)	399 (≈ 250 µg/mL)	639 (≈ 400 µg/mL)	399 (≈ 250 µg/mL)	58.1	1200 (≈ 751 µg/mL)		639 (≈ 400 µg/mL)	inactive
CC1(C)[C@@H](O[C@H]2OC[C@H](O)[C@H](O)[C@H]2O[C@H]2O[C@H](CO)[C@@H](O)[C@H](O)[C@H]2OS(=O)(=O)O)CC[C@]2(C)[C@H]3CC=C4[C@@H]5C[C@@](C)(C=O)CC[C@]5(C(=O)O[C@H]5O[C@H](CO)[C@@H](O)[C@H](O)[C@H]5O)CC[C@@]4(C)[C@]3(C)CC[C@@H]12	1190 (≈ 1200 µg/mL)	45.9	1190 (≈ 1200 µg/mL)	497 (≈ 501 µg/mL)	596 (≈ 601 µg/mL)	596 (≈ 601 µg/mL)	994 (≈ 1000 µg/mL)	56.6	2490 (≈ 2500 µg/mL)	7.2	1990 (≈ 2000 µg/mL)	
CN[C@@H]1[C@H](O[C@H]2[C@H](O[C@H]3[C@H](O)[C@@H](O)[C@H](N=C(N)N)[C@@H](O)[C@@H]3N=C(N)N)O[C@@H](C)[C@]2(O)C=O)O[C@@H](CO)[C@H](O)[C@H]1O [STREPTOMYCIN]	516 (≈ 300 µg/mL)	74.6	516 (≈ 300 µg/mL)	344 (≈ 200 µg/mL)	344 (≈ 200 µg/mL)	516 (≈ 300 µg/mL)	344 (≈ 200 µg/mL)	52.5	516 (≈ 300 µg/mL)	89.3	344 (≈ 200 µg/mL)	
